From ChEMBL document CHEMBL4038286, “Synthesis of camphecene derivatives using click chemistry methodology and study of their antiviral activity” (Bioorg Med Chem Lett, 2017)

Legend:
[1] = Cytotoxicity against MDCK cells assessed as cell death by MTT assay; assay type: cell-based, Canis lupus familiaris; settings: dog, read-out: CTD50
[2] = Selectivity index, ratio of CTD50 for MDCK cells to ED50 for Influenza A virus (A/Puerto Rico/8/34(H1N1)); assay type: toxicity; settings: dog, read-out: Selectivity Index

Compound: CCOP(=O)(CCCCn1cc(COCC/N=C2\C[C@H]3CC[C@]2(C)C3(C)C)nn1)OCC
- CC50 [1]: > 641 µM
- selectivity ratio [2]: > 2

Compound: CNCc1cn(CC/N=C2\C[C@H]3CC[C@]2(C)C3(C)C)nn1
- CC50 [1]: 195 µM
- selectivity ratio [2]: < 2

Compound: CC1(C)[C@@H]2CC[C@@]1(C)/C(=N/CCOCc1cn(CCO)nn1)C2
- CC50 [1]: > 938 µM
- selectivity ratio [2]: > 19

Compound: CC(N)[C@@H]1C[C@H]2CC[C@]1(C)C2 (stereo not given in full)
- CC50 [1]: 1110 µM
- selectivity ratio [2]: 6

Compound: CC(C)(O)Cc1cn(CC/N=C2\C[C@H]3CC[C@]2(C)C3(C)C)nn1
- CC50 [1]: > 987 µM
- selectivity ratio [2]: > 31

Compound: CC1(C)[C@@H]2CC[C@@]1(C)/C(=N/CCOCc1cn(-c3ccccc3)nn1)C2
- CC50 [1]: 138 µM
- selectivity ratio [2]: 2

Compound: CCOC(=O)C(C)(Cc1cn(CC/N=C2\C[C@H]3CC[C@]2(C)C3(C)C)nn1)P(=O)(OCC)OCC (stereo not given in full)
- CC50 [1]: > 555 µM
- selectivity ratio [2]: 2

Compound: C#CCOCC/N=C1\C[C@H]2CC[C@]1(C)C2(C)C
- CC50 [1]: 971 µM
- selectivity ratio [2]: 2

Compound: CC1(C)[C@@H]2CC[C@@]1(C)/C(=N/CCn1cc([Si](C)(C)C)nn1)C2
- CC50 [1]: 32 µM
- selectivity ratio [2]: < 1

Compound: CC1(C)[C@@H]2CC[C@@]1(C)/C(=N\CCOCc1cn(CC/N=C3\C[C@H]4CC[C@]3(C)C4(C)C)nn1)C2
- CC50 [1]: 117 µM
- selectivity ratio [2]: 1

Compound: CCCCc1cn(CC/N=C2\C[C@H]3CC[C@]2(C)C3(C)C)nn1
- CC50 [1]: 303 µM
- selectivity ratio [2]: 5

Compound: CC1(C)[C@@H]2CC[C@@]1(C)/C(=N/CCn1cc(CCO)nn1)C2
- CC50 [1]: > 1030 µM
- selectivity ratio [2]: > 19

Compound: CC(C)(C)OC(=O)Cn1cc(COCC/N=C2\C[C@H]3CC[C@]2(C)C3(C)C)nn1
- CC50 [1]: 204 µM
- selectivity ratio [2]: 8

Compound: COCCNCCc1cn(CC/N=C2\C[C@H]3CC[C@]2(C)C3(C)C)nn1
- CC50 [1]: 865 µM
- selectivity ratio [2]: 34

Compound: CC1(C)[C@@H]2CC[C@@]1(C)/C(=N/CCn1cc(CCN3CCOCC3)nn1)C2
- CC50 [1]: > 836 µM
- selectivity ratio [2]: > 18

Compound: CCOP(=O)(OCC)C(Cc1cn(CC/N=C2\C[C@H]3CC[C@]2(C)C3(C)C)nn1)P(=O)(OCC)OCC
- CC50 [1]: 92 µM
- selectivity ratio [2]: 2

Compound: CC1(C)[C@@H]2CC[C@@]1(C)/C(=N/CCN=[N+]=[N-])C2
- CC50 [1]: > 1360 µM
- selectivity ratio [2]: > 3

Compound: CC1(C)[C@@H]2CC[C@@]1(C)/C(=N/CCn1cc(CO)nn1)C2
- CC50 [1]: > 1090 µM
- selectivity ratio [2]: 2

Compound: NC12CC3CC(CC(C3)C1)C2 [AMANTADINE]
- CC50 [1]: 266 µM
- selectivity ratio [2]: 4

Compound: CC(N)C12CC3CC(CC(C3)C1)C2 (stereo not given) [RIMANTADINE]
- CC50 [1]: 344 µM
- selectivity ratio [2]: 5
